As usually defined, the pIC50 is the IC50 on a negative log10 scale, so that one unit is a factor of ten.

pIC50: −log10 of the molar value. Where a SMILES comes first, the peptide text is derived from it. Bridges are numbered along the chain shown (N, C = ends). [ ]: non-standard residue; d: D form. The star is where a group is joined. ξ: configuration not given here. Phe(4-CONH2) = NC(=O)c1ccc(C[C@H](N)C(=O)O)cc1; Phe(4-COOH) = N[C@@H](Cc1ccc(C(=O)O)cc1)C(=O)O; Bip = N[C@@H](Cc1ccc(-c2ccccc2)cc1)C(=O)O; NH(CH2)14COOH = O=C(O)CCCCCCCCCCCCCCN*; Phe(3-Me) = Cc1cccc(C[C@H](N)C(=O)O)c1; Phe(4-F) = N[C@@H](Cc1ccc(F)cc1)C(=O)O; Val(3-OH) = CC(C)(O)[C@H](N)C(=O)O; 4Pal = N[C@@H](Cc1ccncc1)C(=O)O; Cha = N[C@@H](CC1CCCCC1)C(=O)O; Thr(3ξ) = CC(O)[C@H](N)C(=O)O; NMeNle = CCCC[C@H](NC)C(=O)O; Carboxymethyl = O=C(O)C*; NMeA = CN[C@@H](C)C(=O)O; Aun = NCCCCCCCCCCC(=O)O; Dab = NCC[C@H](N)C(=O)O; AEEA = NCCOCCOCC(=O)O

The target of this assay is T1, PD-1/PD-L1 interaction (PE-labeled human PD-L1-Ig binding to Jurkat cell line over-expressing human PD-1) (Homo sapiens, UniProt Q15116).
T1 construct: expressed in transfected cells; host or cells: Jurkat
T1 sequence (Q15116 25-288): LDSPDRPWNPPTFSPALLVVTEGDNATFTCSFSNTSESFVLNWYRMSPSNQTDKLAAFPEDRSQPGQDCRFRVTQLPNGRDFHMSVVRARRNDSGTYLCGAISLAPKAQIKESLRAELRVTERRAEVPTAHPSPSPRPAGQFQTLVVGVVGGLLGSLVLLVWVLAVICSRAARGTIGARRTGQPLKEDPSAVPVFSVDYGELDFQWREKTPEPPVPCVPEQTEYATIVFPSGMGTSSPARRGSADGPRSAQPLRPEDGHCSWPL
Briefly: Jurkat-PD-1 Cell Binding High-Content Screening Assay (CBA). The conditions noted are these: PE-labeled PD-L1-Ig 20 nM final, Jurkat-hPD-1 cells; read-out: Jurkat HPD1 PDL1 IC50. The procedure, abridged: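 Jurkat cells overexpressing human PD-1 (8×10^3/well, DMEM + 10% FCS) preincubated with compound 2 h at 37 °C, then PE-labelled human PD-L1-Ig (20 nM final) for 1 h. Cells fixed in paraformaldehyde with Hoechst 33342; bound PD-L1 quantified by high-content imaging.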
`Cc1cccc(C[C@@H]2NC(=O)[C@H](CC(=O)O)NC(=O)[C@H](Cc3ccc(OCC(=O)O)cc3)NC(=O)[C@H](C(C)O)NC(=O)CSC[C@@H](C(=O)N[C@@H](CCN)C(=O)NCCOCCOCC(=O)NCCOCCOCC(=O)NCCCCCCCCCCC(=O)O)NC(=O)[C@H](CCC(=O)O)NC(=O)[C@H](C(C)(C)O)NC(=O)[C@H](CC3CCCCC3)NC(=O)[C@H](CCN)NC(=O)[C@@H](CC(C)C)NC(=O)[C@H](C)N(C)C(=O)[C@H](Cc3ccc(C(=O)O)cc3)NC(=O)[C@H](Cc3ccc(-c4ccccc4)cc3)NC(=O)[C@H](Cc3ccc(C(=O)O)cc3)NC2=O)c1` (stereo partly drawn) [Example 2537] ({CH2CO}-[Thr(3ξ)]Y(Carboxymethyl)D[Phe(3-Me)][Phe(4-COOH)][Bip][Phe(4-COOH)][NMeA][dL][Dab][Cha][Val(3-OH)]EC[Dab][AEEA][AEEA][Aun]-OH; thioether N-14): the pIC50 is 7.77. Then `Cc1cccc(C[C@@H]2NC(=O)[C@H](CC(=O)O)NC(=O)[C@H](Cc3ccc(C(=O)O)cc3)NC(=O)[C@H](C(C)O)NC(=O)CSC[C@@H](C(=O)N[C@@H](CCN)C(=O)NCCOCCOCC(=O)NCCOCCOCC(=O)NCCCCCCCCCCC(=O)O)NC(=O)[C@H](CCC(=O)O)NC(=O)[C@H](C(C)C)NC(=O)[C@H](CC3CCCCC3)NC(=O)[C@H](CCN)NC(=O)[C@@H](CC(C)C)NC(=O)[C@H](C)N(C)C(=O)[C@H](Cc3ccc(C(=O)O)cc3)NC(=O)[C@H](Cc3ccc(-c4ccccc4)cc3)NC(=O)[C@H](Cc3ccc(C(=O)O)cc3)NC2=O)c1` (stereo partly drawn) [Example 2538] ({CH2CO}-[Thr(3ξ)][Phe(4-COOH)]D[Phe(3-Me)][Phe(4-COOH)][Bip][Phe(4-COOH)][NMeA][dL][Dab][Cha]VEC[Dab][AEEA][AEEA][Aun]-OH; thioether N-14), with 7.91; and `Cc1cccc(C[C@@H]2NC(=O)[C@H](CC(=O)O)NC(=O)[C@H](Cc3ccc(C(=O)O)cc3)NC(=O)[C@H](C(C)O)NC(=O)CSC[C@@H](C(=O)N[C@@H](CCN)C(=O)NCCOCCOCC(=O)NCCOCCOCC(=O)NCCOCCOCC(=O)NCCCCCCCCCCCCCCC(=O)O)NC(=O)[C@H](CCC(=O)O)NC(=O)[C@H](C(C)C)NC(=O)[C@H](CC3CCCCC3)NC(=O)[C@H](CCN)NC(=O)[C@@H](CC(C)C)NC(=O)[C@H](C)N(C)C(=O)[C@H](Cc3ccc(C(=O)O)cc3)NC(=O)[C@H](Cc3ccc(-c4ccccc4)cc3)NC(=O)[C@H](Cc3ccc(C(=O)O)cc3)NC2=O)c1` (stereo partly drawn) [Example 2539] ({CH2CO}-[Thr(3ξ)][Phe(4-COOH)]D[Phe(3-Me)][Phe(4-COOH)][Bip][Phe(4-COOH)][NMeA][dL][Dab][Cha]VEC[Dab][AEEA][AEEA][AEEA]-{NH(CH2)14COOH}; thioether N-14), with 6.46; and `Cc1cccc(C[C@@H]2NC(=O)[C@H](CC(=O)O)NC(=O)[C@H](Cc3ccc(C(=O)O)cc3)NC(=O)[C@H](Cc3ccncc3)NC(=O)CSC[C@@H](C(=O)N[C@@H](CCN)C(=O)NCCOCCOCC(=O)NCCCCCCCCCCC(=O)O)NC(=O)[C@H](C(C)O)NC(=O)[C@H](C(C)(C)O)NC(=O)[C@H](CC3CCCCC3)NC(=O)[C@H](CCN)NC(=O)[C@@H](CC(C)C)NC(=O)[C@H](C)N(C)C(=O)[C@H](CCC(=O)O)NC(=O)[C@H](Cc3ccc(-c4ccccc4)cc3)NC(=O)[C@H](Cc3ccc(C(N)=O)cc3)NC2=O)c1` (stereo partly drawn) [Example 2540] ({CH2CO}-[4Pal][Phe(4-COOH)]D[Phe(3-Me)][Phe(4-CONH2)][Bip]E[NMeA][dL][Dab][Cha][Val(3-OH)][Thr(3ξ)]C[Dab][AEEA][Aun]-OH; thioether N-14), with 8.05.

With `Cc1cccc(C[C@@H]2NC(=O)[C@H](CC(=O)O)NC(=O)[C@H](Cc3ccc(C(=O)O)cc3)NC(=O)[C@H](Cc3ccc(F)cc3)NC(=O)CSC[C@@H](C(=O)N[C@@H](CCN)C(=O)NCCOCCOCC(=O)NCCOCCOCC(=O)NCCCCCCCCCCC(=O)O)NC(=O)[C@H](CCC(=O)O)NC(=O)[C@H](C(C)C)NC(=O)[C@H](CC3CCCCC3)NC(=O)[C@H](CCN)NC(=O)[C@@H](CC(C)C)NC(=O)[C@H](C)N(C)C(=O)[C@H](Cc3ccc(C(=O)O)cc3)NC(=O)[C@H](Cc3ccc(-c4ccccc4)cc3)NC(=O)[C@H](Cc3ccc(C(=O)O)cc3)NC2=O)c1` [Example 2542] ({CH2CO}-[Phe(4-F)][Phe(4-COOH)]D[Phe(3-Me)][Phe(4-COOH)][Bip][Phe(4-COOH)][NMeA][dL][Dab][Cha]VEC[Dab][AEEA][AEEA][Aun]-OH; thioether N-14), the pIC50 is 8.62. Then `CCCC[C@H]1C(=O)N[C@@H](Cc2ccc(C(=O)O)cc2)C(=O)N[C@@H](CC(=O)O)C(=O)N[C@@H](Cc2cccc(C)c2)C(=O)N[C@@H](Cc2ccc(C(=O)O)cc2)C(=O)N[C@@H](Cc2ccc(-c3ccccc3)cc2)C(=O)N[C@@H](Cc2ccc(C(=O)O)cc2)C(=O)N(C)[C@@H](C)C(=O)N[C@H](CC(C)C)C(=O)N[C@@H](CCN)C(=O)N[C@@H](CC2CCCCC2)C(=O)N[C@@H](C(C)C)C(=O)N[C@@H](CCC(=O)O)C(=O)N[C@H](C(=O)N[C@@H](CCN)C(=O)NCCOCCOCC(=O)NCCCCCCCCCCC(=O)O)CSCC(=O)N1C` [Example 2543] ({CH2CO}-[NMeNle][Phe(4-COOH)]D[Phe(3-Me)][Phe(4-COOH)][Bip][Phe(4-COOH)][NMeA][dL][Dab][Cha]VEC[Dab][AEEA][Aun]-OH; thioether N-14), with 7.49. On to `Cc1cccc(C[C@@H]2NC(=O)[C@H](CC(=O)O)NC(=O)[C@H](Cc3ccc(C(=O)O)cc3)NC(=O)[C@H](C(C)O)NC(=O)CSC[C@@H](C(=O)N[C@@H](CCN)C(=O)NCCOCCOCC(=O)NCCCCCCCCCCC(=O)O)NC(=O)[C@H](Cc3cnc[nH]3)NC(=O)[C@H](C(C)(C)O)NC(=O)[C@H](CC3CCCCC3)NC(=O)[C@H](CCN)NC(=O)[C@@H](CC(C)C)NC(=O)[C@H](C)N(C)C(=O)[C@H](Cc3ccc(C(=O)O)cc3)NC(=O)[C@H](Cc3ccc(-c4ccccc4)cc3)NC(=O)[C@H](Cc3ccc(C(=O)O)cc3)NC2=O)c1` (stereo partly drawn) [Example 2545] ({CH2CO}-[Thr(3ξ)][Phe(4-COOH)]D[Phe(3-Me)][Phe(4-COOH)][Bip][Phe(4-COOH)][NMeA][dL][Dab][Cha][Val(3-OH)]HC[Dab][AEEA][Aun]-OH; thioether N-14), for which the pIC50 was 7.88.

Take `Cc1cccc(C[C@@H]2NC(=O)[C@H](CC(=O)O)NC(=O)[C@H](Cc3ccc(C(=O)O)cc3)NC(=O)[C@H](CCN)NC(=O)CSC[C@@H](C(=O)N[C@@H](CCN)C(=O)NCCOCCOCC(=O)NCCCCCCCCCCC(=O)O)NC(=O)[C@H](CCC(=O)O)NC(=O)[C@H](C(C)C)NC(=O)[C@H](CC3CCCCC3)NC(=O)[C@H](CCN)NC(=O)[C@@H](CC(C)C)NC(=O)[C@H](C)N(C)C(=O)[C@H](Cc3ccc(C(=O)O)cc3)NC(=O)[C@H](Cc3ccc(-c4ccccc4)cc3)NC(=O)[C@H](Cc3ccc(C(=O)O)cc3)NC2=O)c1` [Example 2546] ({CH2CO}-[Dab][Phe(4-COOH)]D[Phe(3-Me)][Phe(4-COOH)][Bip][Phe(4-COOH)][NMeA][dL][Dab][Cha]VEC[Dab][AEEA][Aun]-OH; thioether N-14): the pIC50 is 7.93.

These data come from patent US20260070945A1, “MACROCYCLIC IMMUNOMODULATORS” (Bristol-Myers Squibb Company, priority 2022, published 2026).
